Data as given in PubChem BioAssay AID2060502 (Molecular Pharmacology Branch, DTP, NCI, 2025).
Values joined by “and” are separate entries in the source; they are usually repeats but may differ in a detail not shown here. Equal entries are not always repeated.

System: 885724-159-R-J1-PDC complex spheroid viability
Test: Anticancer human tumor 885724-159-R-J1-PDC patient-derived pancreatic adenocarcinoma cell line growth inhibition [GQUAD]
Conditions: for viability, T/C: stronger effect = lower value
Description: DNA G-quadruplex Stabilizer Agents in Combinations in Complex Spheroids
A high-throughput screen of multi-cell type tumor spheroids was designed to identify active combinations of DNA G-quadruplex stabilizer agents and targeted small molecules. Complex spheroids include a stromal component modeled by human endothelial cells (HUVEC) and fibroblasts modeled by human mesenchymal stem cells (MSCs). The concentration ranges selected for each drug and investigational agent were based upon clinically achievable concentrations if the clinical Cmax of the agent was known.
Compounds. The drugs and investigational agents: pidnarulex (CX-5461; NSC782164), APTO-253 (NSC789042), BRACO-19 (NSC847499), peposertib (NSC802822), ceralasertib (NSC780249), elimusertib (NSC800525), camonsertib (NSC841442), AZD-1390 (NSC803789), olaparib (NSC753686), talazoparib (NSC767125), ART-558 (NSC835418), sotorasib (NSC818433), MRTX-1133 (NSC836407), SN-38 (NSC673596), topotecan (NSC609699), etoposide (NSC141540), doxorubicin (NSC123127), gemcitabine (NSC613327), 5-fluorouracil (NSC19893), paclitaxel (NSC125973), vemurafenib (NSC761431), panobinostat (NSC761190), R-306465 (JNJ-16241199; NSC773264), adavosertib (NSC754352), TP-3654 (NSC805149), carboplatin (NSC241240), KSQ-4279 (NSC840948), and staurosporine (NSC755774) were obtained from the National Cancer Institute (NCI) Developmental Therapeutics Program Chemical Repository (34). The FDA-approved anticancer drug set is available from the NCI Developmental Therapeutics Program. […] The stock solutions were prepared in dimethyl sulfoxide (DMSO, Sigma-Aldrich, St. Louis, MO, cat. D2650) at 800-fold the tested concentration and stored at -70 degrees C prior to their use. All drugs and investigational agents were tested over a range starting from a high concentration at or near the clinical Cmax and decreasing in half-log increments. If the clinical Cmax for an agent had not been determined, the highest concentration tested was 10 microM.
2.3 Cell Culture. All cells were maintained in an incubator at 37 degrees C and 5% CO2 with 95% humidity. The PDC lines were cultured according to standard operating procedures established by the NCI PDMR. All PDCs were thawed and cultured in Matrigel-coated flasks prepared with a working solution of 1X Ham's F-12 nutrient mix, without supplementation (Invitrogen, cat. 11765054), 100 U/mL penicillin-streptomycin (Invitrogen, cat. 15140122), and 2.5% Matrigel (Corning Inc., cat. 354248) for the first three passages. The 857933-349-R-J2-PDC line was cultured in 6C/Colon 1B media, which includes advanced DMEM/F-12 (Thermo Fisher Scientific, cat. 12634028), 10 mM HEPES (Thermo Fisher Scientific, cat. 15630080), 1X GlutaMAX supplement (Thermo Fisher Scientific, cat. 35050061), 0.1 mg/mL primocin (InvivoGen, cat. ant-pm-2), 10% defined fetal bovine serum, heat inactivated (HyClone Laboratories Inc., cat. SH30070.03HI), 50% L-WRN conditioned media (ATCC, cat. CRL-3276), 1.25 mM N-Acetyl-L-cysteine (Sigma-Aldrich, cat. A9165), 10 mM nicotinamide (Sigma-Aldrich, cat. N0636), 1X B-27 supplement (Thermo Fisher Scientific, cat. 17504044), 1X N-2 supplement (Thermo Fisher Scientific, cat. 17502048), 10 microM Y-27632 dihydrochloride (Tocris Bioscience, cat. 1254), and 50 ng/mL human EGF recombinant protein (Thermo Fisher Scientific, cat. PHG0311). The 485176-168-R4-J1-PDC line was cultured in Panc media, which includes all 6C/Colon 1B media components plus 100 ng/mL human FGF-10 (Thermo Fisher Scientific, cat. 100-26), 500 nM SB-431542 (Selleckchem, cat. S1067), and gastrin (Tocris, cat. 3006).
[…]

[1] = curve of first compound, second compound 0.0316 µM
[2] = curve of first compound, second compound 0.1 µM
[3] = curve of first compound, second compound 0.316 µM
[4] = curve of first compound, second compound 1 µM
[5] = curve of first compound, second compound 3.16 µM
[6] = curve of first compound, second compound 10 µM
[7] = second compound 0.0316 µM, first compound 0.0316 µM
[8] = second compound 0.0316 µM, first compound 0.1 µM
[9] = second compound 0.0316 µM, first compound 0.316 µM
[10] = second compound 0.0316 µM, first compound 1 µM
[11] = second compound 0.0316 µM, first compound 3.16 µM
[12] = second compound 0.0316 µM, first compound 10 µM
[13] = second compound 0.1 µM, first compound 0.0316 µM
[14] = second compound 0.1 µM, first compound 0.1 µM
[15] = second compound 0.1 µM, first compound 0.316 µM
[16] = second compound 0.1 µM, first compound 1 µM
[17] = second compound 0.1 µM, first compound 3.16 µM
[18] = second compound 0.1 µM, first compound 10 µM
[19] = second compound 0.316 µM, first compound 0.0316 µM
[20] = second compound 0.316 µM, first compound 0.1 µM
[21] = second compound 0.316 µM, first compound 0.316 µM
[22] = second compound 0.316 µM, first compound 1 µM
[23] = second compound 0.316 µM, first compound 3.16 µM
[24] = second compound 0.316 µM, first compound 10 µM
[25] = second compound 1 µM, first compound 0.0316 µM
[26] = second compound 1 µM, first compound 0.1 µM
[27] = second compound 1 µM, first compound 0.316 µM
[28] = second compound 1 µM, first compound 1 µM
[29] = second compound 1 µM, first compound 3.16 µM
[30] = second compound 1 µM, first compound 10 µM
[31] = second compound 3.16 µM, first compound 0.0316 µM
[32] = second compound 3.16 µM, first compound 0.1 µM
[33] = second compound 3.16 µM, first compound 0.316 µM
[34] = second compound 3.16 µM, first compound 1 µM
[35] = second compound 3.16 µM, first compound 3.16 µM
[36] = second compound 3.16 µM, first compound 10 µM
[37] = second compound 10 µM, first compound 0.0316 µM
[38] = second compound 10 µM, first compound 0.1 µM
[39] = second compound 10 µM, first compound 0.316 µM
[40] = second compound 10 µM, first compound 1 µM
[41] = second compound 10 µM, first compound 3.16 µM
[42] = second compound 10 µM, first compound 10 µM
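Further: spheroids exposed to agents for seven days before readout.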
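Wherever viability, T/C is given: percent of vehicle control viability where 100% = DMSO wells.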

Question: For O=C(c1cc(Cc2n[nH]c(=O)c3ccccc23)ccc1F)N1CCN(C(=O)C2CC2)CC1 + Cc1[nH]c2ccc(F)cc2c1-c1nc2c3cccnc3c3ncccc3c2[nH]1, which IC50 [1] is on record?
Answer: > 10000 nM

Question: And the IC50 [2]?
Answer: > 10000 nM

Question: And the IC50 [3]?
Answer: > 10000 nM

Question: And the IC50 [4]?
Answer: > 10000 nM

Question: And the IC50 [5]?
Answer: < 31.6 nM

Question: What about the IC50 [6] of the same molecule?
Answer: > 10000 nM

Question: And the viability, T/C [7]?
Answer: 99.1%

Question: And the viability, T/C [8]?
Answer: 94.3%

Question: What about the viability, T/C [9] of the same molecule?
Answer: 103%

Question: What about the viability, T/C [10] of the same molecule?
Answer: 84.5%

Question: And the viability, T/C [11]?
Answer: 89.2%

Question: What about the viability, T/C [12] of the same molecule?
Answer: 87.9%

Question: What about the viability, T/C [13] of the same molecule?
Answer: 102%

Question: What about the viability, T/C [14] of the same molecule?
Answer: 111%

Question: What about the viability, T/C [15] of the same molecule?
Answer: 92.2%

Question: What about the viability, T/C [16] of the same molecule?
Answer: 92.6%

Question: What about the viability, T/C [17] of the same molecule?
Answer: 103%

Question: What about the viability, T/C [18] of the same molecule?
Answer: 78.1%

Question: What about the viability, T/C [19] of the same molecule?
Answer: 85.5%

Question: What about the viability, T/C [20] of the same molecule?
Answer: 88.7%

Question: And the viability, T/C [21]?
Answer: 90.3%

Question: What about the viability, T/C [22] of the same molecule?
Answer: 79.1%

Question: What about the viability, T/C [23] of the same molecule?
Answer: 96.2%

Question: What about the viability, T/C [24] of the same molecule?
Answer: 72.9%

Question: And the viability, T/C [25]?
Answer: 71.1%

Question: And the viability, T/C [26]?
Answer: 71.1%

Question: What about the viability, T/C [27] of the same molecule?
Answer: 77.2%

Question: What about the viability, T/C [28] of the same molecule?
Answer: 65.3%

Question: What about the viability, T/C [29] of the same molecule?
Answer: 76.8%

Question: And the viability, T/C [30]?
Answer: 65.6%

Question: And the viability, T/C [31]?
Answer: 41.3%

Question: What about the viability, T/C [32] of the same molecule?
Answer: 39.9%

Question: And the viability, T/C [33]?
Answer: 56.6%

Question: And the viability, T/C [34]?
Answer: 34.7%

Question: What about the viability, T/C [35] of the same molecule?
Answer: 49.8%

Question: And the viability, T/C [36]?
Answer: 45.5%

Question: And the viability, T/C [37]?
Answer: 64.7%

Question: What about the viability, T/C [38] of the same molecule?
Answer: 70.5%

Question: What about the viability, T/C [39] of the same molecule?
Answer: 76.8%

Question: What about the viability, T/C [40] of the same molecule?
Answer: 72.3%

Question: What about the viability, T/C [41] of the same molecule?
Answer: 70.6%

Question: What about the viability, T/C [42] of the same molecule?
Answer: 63.3%

Question: What does the source list for CCCS(=O)(=O)Nc1ccc(F)c(C(=O)c2c[nH]c3ncc(-c4ccc(Cl)cc4)cc23)c1F?
Answer: viability, T/C (compound 0.0316 µM): 98.5% and 105% and 90.7%; viability, T/C (compound 0.1 µM): 90.2% and 105% and 92.3%; viability, T/C (compound 0.316 µM): 111% and 124% and 116%; viability, T/C (compound 1 µM): 136% and 138% and 124%; viability, T/C (compound 3.16 µM): 148% and 137% and 134%; viability, T/C (compound 10 µM): 82% and 77.5% and 78.7%; IC50 (curve of compound): > 10000 nM

Question: How did the IC50 [1] turn out when CC1COCCN1c1cc(C2(O)CC3CCC(C2)O3)c2cnn(-c3ccn[nH]3)c2n1 (stereo unspecified) + Cc1[nH]c2ccc(F)cc2c1-c1nc2c3cccnc3c3ncccc3c2[nH]1 was run?
Answer: 1890 nM

Question: What about the IC50 [2] of the same molecule?
Answer: 1200 nM

Question: And the IC50 [3]?
Answer: 865 nM

Question: And the IC50 [4]?
Answer: 432 nM

Question: What about the IC50 [5] of the same molecule?
Answer: < 31.6 nM

Question: And the IC50 [6]?
Answer: 512 nM

Question: What about the viability, T/C [7] of the same molecule?
Answer: 97.7%

Question: And the viability, T/C [8]?
Answer: 77.5%

Question: And the viability, T/C [9]?
Answer: 68.3%

Question: What about the viability, T/C [10] of the same molecule?
Answer: 55.2%

Question: And the viability, T/C [11]?
Answer: 46%

Question: What about the viability, T/C [12] of the same molecule?
Answer: 37.8%

Question: What about the viability, T/C [13] of the same molecule?
Answer: 96.6%

Question: And the viability, T/C [14]?
Answer: 88%

Question: And the viability, T/C [15]?
Answer: 74.1%

Question: What about the viability, T/C [16] of the same molecule?
Answer: 50.1%

Question: What about the viability, T/C [17] of the same molecule?
Answer: 42.7%

Question: What about the viability, T/C [18] of the same molecule?
Answer: 37.7%

Question: And the viability, T/C [19]?
Answer: 91%

Question: What about the viability, T/C [20] of the same molecule?
Answer: 79%

Question: And the viability, T/C [21]?
Answer: 62.4%

Question: What about the viability, T/C [22] of the same molecule?
Answer: 47.3%

Question: And the viability, T/C [23]?
Answer: 41.6%

Question: And the viability, T/C [24]?
Answer: 35.5%

Question: What about the viability, T/C [25] of the same molecule?
Answer: 79.5%

Question: What about the viability, T/C [26] of the same molecule?
Answer: 66%

Question: And the viability, T/C [27]?
Answer: 54.2%

Question: What about the viability, T/C [28] of the same molecule?
Answer: 38.1%

Question: What about the viability, T/C [29] of the same molecule?
Answer: 37.4%

Question: And the viability, T/C [30]?
Answer: 25.4%

Question: What about the viability, T/C [31] of the same molecule?
Answer: 41.2%

Question: And the viability, T/C [32]?
Answer: 29.9%

Question: And the viability, T/C [33]?
Answer: 41.1%

Question: What about the viability, T/C [34] of the same molecule?
Answer: 22.6%

Question: What about the viability, T/C [35] of the same molecule?
Answer: 20.1%

Question: What about the viability, T/C [36] of the same molecule?
Answer: 8.51%

Question: And the viability, T/C [37]?
Answer: 69.6%

Question: And the viability, T/C [38]?
Answer: 69%

Question: What about the viability, T/C [39] of the same molecule?
Answer: 51%

Question: And the viability, T/C [40]?
Answer: 44.4%

Question: And the viability, T/C [41]?
Answer: 33.1%

Question: And the viability, T/C [42]?
Answer: 24.1%
